Assay results reported in publication PMC9537541, “Synthesis and anticancer activity of new benzensulfonamides incorporating s-triazines as cyclic linkers for inhibition of carbonic anhydrase IX” (Scientific Reports, 2022).
Where a name gives a salt, the structure may show the parent alone.

How the values were obtained:
[1] = system: Leukemia (SR); test: NCI single dose SRB screen, SR; format: cell-based; details: 48 h, 10^−5 M single dose, read-out: GI% Leukemia (SR)
Description: (§1) Target compounds in series (A) and (B), were submitted to the National Cancer Institute (NCI) Developmental Therapeutic Program (www.dtp.nci.nih.gov), where they have been assessed, in vitro for their anticancer activity. Two series (A) and (B), were screened in a single dose (10 µM) versus full panel composed of 60 cancer cell lines, in accordance with protocol of drug evaluation branch, NCI, Bethesda. Sulforhodamine B (SRB) colorimetric assay was used to determine cell growth and viability,[40].
(§2) Protocol of Drug Evaluation Branch, NCI, Bethesda, was adopted in the antitumor assay. Assessment of cell growth and viability was carried out utilizing SRB assay and 48 h drug exposure protocol as previously reported,[40].

[2] = system: CNS cancer (SNB-75); test: NCI single dose SRB screen, SNB-75; format: cell-based; details: Homo sapiens, SNB-75, 48 h, 10^−5 M single dose, read-out: GI% CNS cancer (SNB-75)
Description: as §1, §2

[3] = system: Renal cancer (UO-31); test: NCI single dose SRB screen, UO-31; format: cell-based; details: Homo sapiens, UO-31, 48 h, 10^−5 M single dose, read-out: GI% Renal cancer (UO-31)
Description: as §1, §2

[4] = target: T1, hCA II (Homo sapiens, UniProt P00918); test: stopped-flow CO2 hydrase assay, hCA II; format: biochemical; details: for Ki: stopped flow technique, mean from 3 different assays
T1 construct: made in house
Description: (§3) Target compounds of series (A) and (B) were screened as inhibitors concerning the physiologically relevant hCAs; cytosolic isoforms (hCA I and II) in addition to the transmembrane tumor related isoforms (hCA IX and XII) via a stopped-flow assay of carbonic anhydrase catalyzed CO2 hydration. Acetazolamide (AAZ), CA I drug, was also incorporated in the assays as a standard drug. […] Four CA isoforms inhibition activity was measured by assaying CA catalyzed CO2 hydration via an applied photophysics stopped-flow instrument. PRISM 3 and the Cheng-prusoff equation were used to determine the inhibition constant by non-linear least square methods as reported, and represent the mean from three different determination at least. All tested carbonic anhydrase isoforms were recombinant proteins prepared in lab as described earlier,[57].

[5] = target: T2, hCA XII (Homo sapiens, UniProt O43570); test: stopped-flow CO2 hydrase assay, hCA XII; format: biochemical; details: for Ki: stopped flow technique, mean from 3 different assays; for Selectivity index (SI) I/XII: hCA XII over off-target hCA I; for Selectivity index (SI) II/XII: hCA XII over off-target hCA II
T2 construct: made in house
Description: as §3

[6] = system: Breast cancer (MDA-MB-468); test: NCI single dose SRB screen, MDA-MB-468; format: cell-based; details: Homo sapiens, MDA-MB-468, 48 h, 10^−5 M single dose, 48 h, SRB; read-out: GI% Breast cancer (MDA-MB-468)
Description: as §1, §2

[7] = target: T3, hCA I (Homo sapiens, UniProt P00915); test: stopped-flow CO2 hydrase assay, hCA I; format: biochemical; details: stopped flow technique, mean from 3 different assays
T3 construct: made in house
Description: as §3

[8] = target: T4, hCA IX (Homo sapiens, UniProt Q16790); test: stopped-flow CO2 hydrase assay, hCA IX; format: biochemical; details: for Ki: stopped flow technique, mean from 3 different assays; for Selectivity index (SI) I/IX: hCA IX over off-target hCA I; for Selectivity index (SI) II/IX: hCA IX over off-target hCA II
T4 construct: made in house
Description: as §3

T3 sequence (P00915 whole entry): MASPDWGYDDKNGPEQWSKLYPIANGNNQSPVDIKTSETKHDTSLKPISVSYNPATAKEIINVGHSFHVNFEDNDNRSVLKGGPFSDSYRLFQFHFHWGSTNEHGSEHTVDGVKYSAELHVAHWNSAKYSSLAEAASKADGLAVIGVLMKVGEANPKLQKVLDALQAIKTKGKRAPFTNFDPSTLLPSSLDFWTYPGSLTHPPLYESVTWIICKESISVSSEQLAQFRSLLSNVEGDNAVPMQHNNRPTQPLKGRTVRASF
T2 sequence (O43570 25-354): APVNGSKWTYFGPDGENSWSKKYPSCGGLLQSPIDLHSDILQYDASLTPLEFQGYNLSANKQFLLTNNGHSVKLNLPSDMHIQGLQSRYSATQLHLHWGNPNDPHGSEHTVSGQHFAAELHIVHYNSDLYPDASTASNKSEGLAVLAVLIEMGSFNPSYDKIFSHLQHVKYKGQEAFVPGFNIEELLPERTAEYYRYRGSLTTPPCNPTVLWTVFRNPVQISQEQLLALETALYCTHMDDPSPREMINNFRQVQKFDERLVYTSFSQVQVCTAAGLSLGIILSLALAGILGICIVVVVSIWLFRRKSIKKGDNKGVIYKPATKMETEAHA

| melting point | Ki [4] | Ki [5] | Ki [7] | Ki [8] | Selectivity index (SI) I/XII [5] | Selectivity index (SI) II/XII [5] | Selectivity index (SI) I/IX [8] | Selectivity index (SI) II/IX [8] | decrease of hCA II activity relative to the m-fluoro analogue [4] | Structure (SMILES) | inhibition at 10 µM [1] | inhibition at 10 µM [2] | inhibition at 10 µM [3] | inhibition at 10 µM [6] |
| --- | --- | --- | --- | --- | --- | --- | --- | --- | --- | --- | --- | --- | --- | --- |
| 239 to 241 °C | – | – | – | – | – | – | – | – | – | NC1=NC2(CCCCCC2)N(c2ccc(S(=O)(=O)Nc3ccccn3)cc2)C(N)=N1 (as salt: HCl) [Compound 6g, 4-(2,4-Diamino-1,3,5-triazaspiro[5.6]dodeca-2,4-dien-1-yl)-N-(pyridin-2-yl)benzene-1-sulfonamide.HCl] | – | – | – | – |
| 216 to 218 °C | – | – | – | – | – | – | – | – | – | NC1=NC2(CCCC2)N(c2ccc(S(=O)(=O)Nc3nccs3)cc2)C(N)=N1 (as salt: HCl) [Compound 6h, 4-{7,9-Diamino-6,8,10-triazaspiro[4.5]deca-7,9-dien-6-yl}-N-(1,3-thiazol-2-yl)benzene-1-sulfonamide.HCl] | – | – | – | – |
| 245 to 247 °C | – | – | – | – | – | – | – | – | – | NC1=NC2(CCCCC2)N(c2ccc(S(=O)(=O)Nc3nccs3)cc2)C(N)=N1 (as salt: HCl) [Compound 6i, 4-(2,4-Diamino-1,3,5-triazaspiro[5.5]undeca-2,4-dien-1-yl)-N-(1,3-thiazol-2-yl)benzene-1-sulfonamide.HCl] | – | – | – | – |
| 243 to 245 °C | – | – | – | – | – | – | – | – | – | CC1CCC2(CC1)N=C(N)N=C(N)N2c1ccc(S(=O)(=O)Nc2nccs2)cc1 (stereo not drawn) (as salt: HCl) [Compound 6j, 4-(2,4-Diamino-9-methyl-1,3,5-triazaspiro[5.5]undeca-2,4-dien-1-yl)-N-(1,3-thiazol-2-yl)benzene-1-sulfonamide.HCl] | – | – | – | – |
| 209 to 211 °C | > 10000 nM | > 10000 nM | > 10000 nM | > 10000 nM | – | – | – | – | – | CC1(C)N=C(N)N=C(N)N1c1ccc(S(=O)(=O)Nc2ccccn2)cc1.Cl [Compound 5b, 4-(4,6-Diamino-2,2-dimethyl-1,2-dihydro-1,3,5-triazin-1-yl)-N-(pyridin-2-yl)benzene-1-sulfonamide HCl] | ≤ 10% | 28% | 11% | ≤ 10% |
| 268 to 270 °C | 384 nM | 4650 nM | 6840 nM | 295 nM | 1.5 | 0.1 | 23.2 | 1.3 | – | CC1(C)N=C(N)N=C(Nc2ccc(S(N)(=O)=O)cc2)N1 [Compound 7a, 4-[(4-Amino-6,6-dimethyl-1,6-dihydro-1,3,5-triazin-2-yl)amino]benzene-1-sulfonamide] | ≤ 10% | ≤ 10% | 12% | ≤ 10% |
| 264 to 266 °C | 3620 nM | 7420 nM | 94.4 nM | 1420 nM | 0.01 | 0.5 | 0.1 | 2.5 | – | NC1=NC2(CCCC2)NC(Nc2ccc(S(N)(=O)=O)cc2)=N1 [Compound 8a, 4-({9-Amino-6,8,10-triazaspiro[4.5]deca-7,9-dien-7-yl}amino)benzene-1-sulfonamide] | ≤ 10% | 14% | 17% | ≤ 10% |
| 270 to 272 °C | 3160 nM | 5430 nM | 354 nM | 2280 nM | 0.1 | 0.6 | 0.2 | 1.4 | – | NC1=NC2(CCCCC2)NC(Nc2ccc(S(N)(=O)=O)cc2)=N1 [Compound 8b, 4-({4-Amino-1,3,5-triazaspiro[5.5]undeca-2,4-dien-2-yl}amino)benzene-1-sulfonamide] | 15% | 21% | ≤ 10% | 11% |
| 264 to 266 °C | 591 nM | 936 nM | 408 nM | 1220 nM | 0.4 | 0.6 | 0.3 | 0.5 | – | CC1CCC2(CC1)N=C(N)N=C(Nc1ccc(S(N)(=O)=O)cc1)N2 (stereo not drawn) [Compound 8c, 4-({4-Amino-9-methyl-1,3,5-triazaspiro[5.5]undeca-2,4-dien-2-yl}amino)benzene-1-sulfonamide] | ≤ 10% | ≤ 10% | ≤ 10% | ≤ 10% |
| 284 to 286 °C | 49.2 nM | 7630 nM | 72.3 nM | 2450 nM | 0.01 | 0.006 | 0.03 | 0.02 | – | N#CCc1nc(N)nc(Nc2ccc(S(N)(=O)=O)cc2)n1 [Compound 10, 4-{[4-amino-6-(cyanomethyl)-1,3,5-triazin-2-yl]amino}benzene-1-sulfonamide] | ≤ 10% | 33% | ≤ 10% | ≤ 10% |
| 174 to 176 °C | 436 nM | 8060 nM | 3600 nM | 1540 nM | 0.4 | 0.05 | 2.3 | 0.3 | – | N#C/C(=C\c1ccccc1)c1nc(N)nc(Nc2ccc(S(N)(=O)=O)cc2)n1 [Compound 12a, 4-({4-Amino-6-[(1E)-1-cyano-2-phenyleth-1-en-1-yl]-1,3,5-triazin-2-yl}amino)benzene-1-sulfonamide] | ≤ 10% | ≤ 10% | ≤ 10% | ≤ 10% |
| 234 to 236 °C | 2000 nM | 8210 nM | 2620 nM | 1020 nM | 0.3 | 0.2 | 2.5 | 2 | 8 folds | N#C/C(=C\c1cccc(Br)c1)c1nc(N)nc(Nc2ccc(S(N)(=O)=O)cc2)n1 [Compound 12b, 4-({4-Amino-6-[(1E)-2-(3-bromophenyl)-1-cyanoeth-1-en-1-yl]-1,3,5-triazin-2-yl}amino)benzene-1-sulfonamide] | 14% | 14% | 16% | 16% |
| 281 to 283 °C | 1940 nM | 8680 nM | 962 nM | 1390 nM | 0.1 | 0.2 | 0.7 | 1.4 | – | COc1ccc(/C=C(\C#N)c2nc(N)nc(Nc3ccc(S(N)(=O)=O)cc3)n2)cc1 [Compound 12c, 4-({4-Amino-6-[(1E)-1-cyano-2-(4-methoxyphenyl)eth-1-en-1-yl]-1,3,5-triazin-2-yl}amino)benzene-1-sulfonamide] | 16% | ≤ 10% | 14% | 22% |
| 269 to 271 °C | 893 nM | 8540 nM | 4050 nM | 971 nM | 0.5 | 0.1 | 4 | 1 | – | N#C/C(=C\c1ccc2c(c1)OCO2)c1nc(N)nc(Nc2ccc(S(N)(=O)=O)cc2)n1 [Compound 12e, 4-({4-Amino-6-[(1E)-2-(2H-1,3-benzodioxol-5-yl)-1-cyanoeth-1-en-1-yl]-1,3,5-triazin-2-yl}amino)benzene-1-sulfonamide] | 11% | ≤ 10% | 13% | 27% |
| 234 to 236 °C | 493 nM | 4200 nM | 590 nM | 195 nM | 0.1 | 0.1 | 3 | 2.5 | – | N#C/C(=C\c1ccc(F)cc1)c1nc(N)nc(Nc2ccc(S(N)(=O)=O)cc2)n1 [Compound 12f., 4-({4-Amino-6-[(1E)-1-cyano-2-(4-fluorophenyl)eth-1-en-1-yl]-1,3,5-triazin-2-yl}amino)benzene-1-sulfonamide] | 11% | 10% | 15% | 15% |
